Test results taken from patent US8614201B2 (Janssen Pharmaceutica NV, priority 2009, dated 2013).

Target: Human TRPA1 (Homo sapiens, UniProt O75762)
Assay: Assay 1: In vitro cellular testing of TRPA1 modulation (CHO-TREx, Fluo-3 calcium fluorescence, AITC agonist)
Type: cell-based
Design: expressed in transfected cells; host or cells: CHO-TREx cells (Invitrogen), vector pcDNA4/TO
Conditions: CHO-TREx cells expressing human TRPA1; Fluo-3 fluorescence (FLIPR/Tetra); agonist 15 μM allyl isothiocyanate (AITC); 30 minute antagonist incubation
Description: Assay 1: In Vitro Cellular Testing of TRPA1 Modulation
Human TRPA1 (NCBI accession number NM_007332.1) was cloned into pcDNA4/TO. CHO-TREx cells (Invitrogen, Carlsbad, Calif.) were stably transfected with pcDNA4/TO-TRPA1 using lipofection to generate a clonal cell line that expressed human TRPA1 in a tetracycline-inducible manner. Culture medium used was Ham's F-12 supplemented with 10% fetal bovine serum, 2 mM L-glutamine, 5 μg/ml blasticidin and 200 μg/ml zeocin. Cells were seeded in black-walled clear-bottom 96-well plates at a density of 50,000 cells per well and cultured overnight at 37° C. with 5% CO2 in culture medium supplemented with 1 μg/ml tetracycline. On the day of the experiment, cells were washed 3 times with HEPES buffered saline (in mM: NaCl 137, MgCl2 0.5, KCl 2, dextrose 5, CaCl2 2 and HEPES 10; pH 7.4). Cells were then loaded with calcium-sensitive fluorescent dye by incubation in the presence of 4 μM Fluo-3 AM (TefLabs, Austin, Tex.) at room temperature in the dark for 60 minutes. After incubation with dye, cells were washed in assay buffer and, if appropriate, antagonists were added at this time. Following a further 30 minute incubation, cells were assayed using a Fluorometric Imaging Plate Reader (FLIPR™) or a Tetra (both manufactured by Molecular Devices, CA) to simultaneously monitor Fluo-3 fluorescence in all wells (λexcitation=488 nm, λemission=540 nm). Changes in fluorescence were monitored for 3 minutes after the addition of 15 μM allyl isothiocyanate (AITC) as an agonist. Concentration-dependence of receptor blocking was determined by exposing each well of cells in duplicate rows of a 96-well plate to a serial dilution of test compound. The concentration series usually started at 10 μM with a three-fold serial decrement in concentration. The magnitude of the response to agonist challenge was determined by measuring the fluorescence before and 3 minutes after the addition of the agonist. The degree of blocking was determined by comparing the response to that of negative (no added antagonist) and positive (10 μM ruthenium red) control wells. Data were analyzed using a non-linear regression program (Origin; OriginLab, MA) to fit the concentration-response data to a Hill function. Antagonist potencies were determined as the concentration required to produce 50% reduction in the response as compared to the negative and positive controls.

Sequence of Human TRPA1 (O75762 whole entry): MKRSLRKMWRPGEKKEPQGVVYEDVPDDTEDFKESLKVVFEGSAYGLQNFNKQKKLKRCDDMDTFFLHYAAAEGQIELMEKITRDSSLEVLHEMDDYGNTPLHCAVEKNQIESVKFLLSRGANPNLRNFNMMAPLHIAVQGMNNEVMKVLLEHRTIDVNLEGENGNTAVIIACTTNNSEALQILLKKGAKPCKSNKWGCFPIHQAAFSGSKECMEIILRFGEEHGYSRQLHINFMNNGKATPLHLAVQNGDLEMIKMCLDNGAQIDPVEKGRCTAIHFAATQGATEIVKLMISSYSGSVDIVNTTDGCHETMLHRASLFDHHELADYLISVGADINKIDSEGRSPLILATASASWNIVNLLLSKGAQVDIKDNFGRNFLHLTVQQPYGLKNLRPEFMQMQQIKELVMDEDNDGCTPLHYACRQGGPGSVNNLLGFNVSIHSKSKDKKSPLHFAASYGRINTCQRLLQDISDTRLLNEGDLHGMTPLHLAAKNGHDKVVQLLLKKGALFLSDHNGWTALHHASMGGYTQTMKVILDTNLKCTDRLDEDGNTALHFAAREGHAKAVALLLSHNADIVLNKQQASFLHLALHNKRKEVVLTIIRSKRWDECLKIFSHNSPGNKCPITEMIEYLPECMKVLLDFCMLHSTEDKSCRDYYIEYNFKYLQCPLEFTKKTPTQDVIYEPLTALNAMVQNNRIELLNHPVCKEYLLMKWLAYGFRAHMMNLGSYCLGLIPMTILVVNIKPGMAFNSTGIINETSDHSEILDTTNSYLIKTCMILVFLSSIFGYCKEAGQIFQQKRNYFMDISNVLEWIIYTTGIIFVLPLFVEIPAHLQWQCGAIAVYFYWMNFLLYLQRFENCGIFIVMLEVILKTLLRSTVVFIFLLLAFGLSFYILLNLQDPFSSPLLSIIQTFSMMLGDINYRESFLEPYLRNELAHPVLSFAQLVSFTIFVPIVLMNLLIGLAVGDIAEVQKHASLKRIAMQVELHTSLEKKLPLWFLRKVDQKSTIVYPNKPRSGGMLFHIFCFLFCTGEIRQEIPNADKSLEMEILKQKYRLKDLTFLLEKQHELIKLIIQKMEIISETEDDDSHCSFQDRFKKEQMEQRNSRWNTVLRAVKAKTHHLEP

| SMILES | IC50 [µM] |
| --- | --- |
| CNC1CCN(c2nc(CNC(=O)[C@@H]3CCCN3S(=O)(=O)c3ccc(Cl)s3)cc(-c3ccc(C(F)(F)F)cc3)n2)C1 (stereo partly drawn) [Example 41, 1-(5-Chloro-thiophene-2-sulfonyl)-pyrrolidine-2S-carboxylic acid [2-(3-methylamino-pyrrolidin-1-yl)-6-(4-trifluoromethyl-phenyl)-pyrimidin-4-ylmethyl]-amide] | 2.92 |
| CC(C)COc1nc(CNC(=O)[C@@H]2CCCN2S(=O)(=O)c2ccc(F)cc2)cc(-c2ccc(C(F)(F)F)cc2)n1 [Example 42, 1-(4-Fluoro-benzenesulfonyl)-pyrrolidine-2-carboxylic acid [2-isobutoxy-6-(4-trifluoromethyl-phenyl)-pyrimidin-4-ylmethyl]-amide] | 0.016 |
| CC(C)COc1nc(CNC(=O)[C@@H]2CCCN2S(=O)(=O)c2ccc(Cl)s2)cc(-c2ccc(C(F)(F)F)cc2)n1 [Example 43, 1-(5-Chloro-thiophene-2-sulfonyl)-pyrrolidine-2S-carboxylic acid [2-isobutoxy-6-(4-trifluoromethyl-phenyl)-pyrimidin-4-ylmethyl]-amide] | 0.004 |
| CC(C)C1CCCN1c1nc(CNC(=O)[C@@H]2CCCN2S(=O)(=O)c2ccc(Cl)s2)cc(-c2ccc(C(F)(F)F)cc2)n1 (stereo partly drawn) [Example 44, 1-(5-Chloro-thiophene-2-sulfonyl)-pyrrolidine-2S-carboxylic acid [2-(2-isopropyl-pyrrolidin-1-yl)-6-(4-trifluoromethyl-phenyl)-pyrimidin-4-ylmethyl]-amide] | 0.012 |
| CC(O)CNc1nc(CNC(=O)[C@@H]2CCCN2S(=O)(=O)c2ccc(Cl)s2)cc(-c2ccc(C(F)(F)F)cc2)n1 (stereo partly drawn) [Example 45, 1-(5-Chloro-thiophene-2-sulfonyl)-pyrrolidine-2S-carboxylic acid [2-(2-hydroxy-propylamino)-6-(4-trifluoromethyl-phenyl)-pyrimidin-4-ylmethyl]-amide] | 2.04 |
| CC(C)(O)CNc1nc(CNC(=O)[C@@H]2CCCN2S(=O)(=O)c2ccc(Cl)s2)cc(-c2ccc(C(F)(F)F)cc2)n1 [Example 46, 1-(5-Chloro-thiophene-2-sulfonyl)-pyrrolidine-2S-carboxylic acid [2-(2-hydroxy-2-methyl-propylamino)-6-(4-trifluoromethyl-phenyl)-pyrimidin-4-ylmethyl]-amide] | 0.747 |
| COc1nc(CNC(=O)[C@@H]2CCCN2S(=O)(=O)c2ccc(Cl)s2)cc(-c2ccc(C(F)(F)F)cc2)n1 [Example 47, 1-(5-Chloro-thiophene-2-sulfonyl)-pyrrolidine-2S-carboxylic acid [2-methoxy-6-(4-trifluoromethyl-phenyl)-pyrimidin-4-ylmethyl]-amide] | 0.014 |
| CC1CCCN1c1nc(CNC(=O)[C@@H]2CCCN2S(=O)(=O)c2ccc(Cl)s2)cc(-c2ccc(C(F)(F)F)cc2)n1 (stereo partly drawn) [Example 48, 1-(5-Chloro-thiophene-2-sulfonyl)-pyrrolidine-2S-carboxylic acid [2-(2-methyl-pyrrolidin-1-yl)-6-(4-trifluoromethyl-phenyl)-pyrimidin-4-ylmethyl]-amide] | 0.006 |
| CCOc1nc(CNC(=O)[C@@H]2CCCN2S(=O)(=O)c2ccc(Cl)s2)cc(-c2ccc(C(F)(F)F)cc2)n1 [Example 49, 1-(5-Chloro-thiophene-2-sulfonyl)-pyrrolidine-2S-carboxylic acid [2-ethoxy-6-(4-trifluoromethyl-phenyl)-pyrimidin-4-ylmethyl]-amide] | 0.015 |
| O=C(NCc1cc(-c2ccc(C(F)(F)F)cc2)nc(N2CCN(Cc3ccccc3Cl)CC2)n1)[C@@H]1CCCN1S(=O)(=O)c1ccc(F)cc1 [Example 50, 1-(4-Fluoro-benzenesulfonyl)-pyrrolidine-2S-carboxylic acid [2-[4-(2-chloro-benzyl)-piperazin-1-yl]-6-(4-trifluoromethyl-phenyl)-pyrimidin-4-ylmethyl]-amide] | 0.036 |
| O=C(NCc1cc(-c2ccc(C(F)(F)F)cc2)nc(N2CCN(Cc3ccccc3OC(F)(F)F)CC2)n1)[C@@H]1CCCN1S(=O)(=O)c1ccc(F)cc1 [Example 51, 1-(4-Fluoro-benzenesulfonyl)-pyrrolidine-2S-carboxylic acid [2-[4-(2-trifluoromethoxy-benzyl)-piperazin-1-yl]-6-(4-trifluoromethyl-phenyl)-pyrimidin-4-ylmethyl]-amide] | 0.148 |
| CCc1ccccc1CN1CCN(c2nc(CNC(=O)[C@@H]3CCCN3S(=O)(=O)c3ccc(F)cc3)cc(-c3ccc(C(F)(F)F)cc3)n2)CC1 [Example 52, 1-(4-Fluoro-benzenesulfonyl)-pyrrolidine-2S-carboxylic acid [2-[4-(2-ethyl-benzyl)-piperazin-1-yl]-6-(4-trifluoromethyl-phenyl)-pyrimidin-4-ylmethyl]-amide] | 0.013 |

Results, then the compound that gave them:

| IC50 [µM] | SMILES |
| --- | --- |
| 0.426 | CC(=O)N(C)C1CCN(c2nc(CNC(=O)[C@@H]3CCCN3S(=O)(=O)c3ccc(Cl)s3)cc(-c3ccc(C(F)(F)F)cc3)n2)C1 (stereo partly drawn) [Example 53, 1-(5-Chloro-thiophene-2-sulfonyl)-pyrrolidine-2S-carboxylic acid [2-[3-(acetyl-methyl-amino)-pyrrolidin-1-yl]-6-(4-trifluoromethyl-phenyl)-pyrimidin-4-ylmethyl]-amide] |
| 1.07 | CCN(CC)C1CCN(c2nc(CNC(=O)[C@@H]3CCCN3S(=O)(=O)c3ccc(Cl)s3)cc(-c3ccc(C(F)(F)F)cc3)n2)C1 (stereo partly drawn) [Example 54, 1-(5-Chloro-thiophene-2-sulfonyl)-pyrrolidine-2S-carboxylic acid [2-(3-diethylamino-pyrrolidin-1-yl)-6-(4-trifluoromethyl-phenyl)-pyrimidin-4-ylmethyl]-amide] |
| 2.55 | CC(C)N1CCC(CN(C)c2nc(CNC(=O)[C@@H]3CCCN3S(=O)(=O)c3ccc(Cl)s3)cc(-c3ccc(C(F)(F)F)cc3)n2)CC1 [Example 55, 1-(5-Chloro-thiophene-2S-sulfonyl)-pyrrolidine-2S-carboxylic acid [2-[(1-isopropyl-piperidin-4-ylmethyl)-methyl-amino]-6-(4-trifluoromethyl-phenyl)-pyrimidin-4-ylmethyl]-amide] |
| 0.051 | CC(C)CN1CCN(c2nc(CNC(=O)[C@@H]3C=CCN3S(=O)(=O)c3ccc(Cl)s3)cc(-c3ccc(C(F)(F)F)cc3)n2)CC1 [Example 56, 1-(5-Chloro-thiophene-2-sulfonyl)-2,5-dihydro-1H-pyrrole-2S-carboxylic acid [2-(4-isobutyl-piperazin-1-yl)-6-(4-trifluoromethyl-phenyl)-pyrimidin-4-ylmethyl]-amide] |
| 0.194 | CC(C)CN1CCN(c2nc(CNC(=O)[C@@H]3CC(F)(F)CN3S(=O)(=O)c3ccc(Cl)s3)cc(-c3ccc(C(F)(F)F)cc3)n2)CC1 [Example 57, 1-(5-Chloro-thiophene-2-sulfonyl)-4,4-difluoro-pyrrolidine-2S-carboxylic acid [2-(4-isobutyl-piperazin-1-yl)-6-(4-trifluoromethyl-phenyl)-pyrimidin-4-ylmethyl]-amide] |
| 0.005 | O=C(NCc1cc(-c2ccc(C(F)(F)F)cc2)nc(OCC(F)(F)F)n1)[C@@H]1CCCN1S(=O)(=O)c1ccc(Cl)s1 [Example 58, 1-(5-Chloro-thiophene-2-sulfonyl)-pyrrolidine-2S-carboxylic acid [2-(2,2,2-trifluoro-ethoxy)-6-(4-trifluoromethyl-phenyl)-pyrimidin-4-ylmethyl]-amide] |
| 0.081 | CN(C)c1nc(CNC(=O)[C@@H]2CC(F)(F)CN2S(=O)(=O)c2ccc(Cl)s2)cc(-c2ccc(C(F)(F)F)cc2)n1 [Example 59] |
| 6.17 | CC1CCCN1c1nc(CNC(=O)[C@@H]2CC(F)(F)CN2S(=O)(=O)c2ccc(Cl)s2)cc(-c2ccc(C(F)(F)F)cc2)n1 (stereo partly drawn) [Example 60, 1-(5-Chloro-thiophene-2-sulfonyl)-4,4-difluoro-pyrrolidine-2S-carboxylic acid [2-(2-methyl-pyrrolidin-1-yl)-6-(4-trifluoromethyl-phenyl)-pyrimidin-4-ylmethyl]-amide] |
| 0.105 | O=C(NCc1cc(-c2ccc(C(F)(F)F)cc2)nc(OCC(F)(F)F)n1)[C@@H]1CC(F)(F)CN1S(=O)(=O)c1ccc(Cl)s1 [Example 61, 1-(5-Chloro-thiophene-2-sulfonyl)-4,4-difluoro-pyrrolidine-2S-carboxylic acid [2-(2,2,2-trifluoro-ethoxy)-6-(4-trifluoromethyl-phenyl)-pyrimidin-4-ylmethyl]-amide] |
